For 24 molecules, IC50 results are on record in patent publication US9493446B2, “Orexin receptor antagonists which are [ortho bi-(hetero-)aryl]-[2-(meta bi-(hetero-)aryl)-pyrrolidin-1-yl]-methanone derivatives” (Actelion Pharmaceuticals Ltd, priority 2012, dated 2016).

The target of one assay is human orexin-2 receptor (Homo sapiens (Human), UniProt O43614). The assay is described as follows: Intracellular calcium measurement (FLIPR), CHO cells expressing human orexin-2 receptor, 3 nM orexin-A. The format is cell-based. The settings on record: read-out: IC50 OX2. Put shortly: (§1)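 CHO transfectants were dye-loaded (fluo-4 AM, probenecid) and exposed to antagonist for 120 min ahead of agonist.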
human orexin-2 receptor, sequence (O43614 whole entry): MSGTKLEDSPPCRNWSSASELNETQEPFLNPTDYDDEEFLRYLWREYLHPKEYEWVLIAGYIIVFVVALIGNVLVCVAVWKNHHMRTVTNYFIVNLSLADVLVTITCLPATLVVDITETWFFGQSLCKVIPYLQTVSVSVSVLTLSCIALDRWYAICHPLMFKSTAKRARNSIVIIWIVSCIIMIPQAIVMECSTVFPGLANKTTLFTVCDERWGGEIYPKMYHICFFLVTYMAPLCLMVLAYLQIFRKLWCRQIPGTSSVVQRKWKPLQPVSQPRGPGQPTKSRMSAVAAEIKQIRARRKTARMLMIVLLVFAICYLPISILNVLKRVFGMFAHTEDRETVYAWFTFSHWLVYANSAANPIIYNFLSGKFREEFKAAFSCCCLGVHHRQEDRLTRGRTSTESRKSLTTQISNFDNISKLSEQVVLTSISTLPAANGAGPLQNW
For orientation: Calcium flux is commonly read through the fluorescence of an indicator in the cells.

Another assay deals with orexin-1 (Homo sapiens (Human), UniProt O43613). Briefly: Intracellular calcium measurement (FLIPR), CHO cells expressing human orexin-1 receptor, 3 nM orexin-A. Conditions: read-out: IC50 OX1. The format is cell-based. Put shortly:
as §1

Setting [1] is: CHO cells expressing human orexin-2 receptor, FLIPR, 3 nM orexin-A, geometric mean if determined several times.
[2] abbreviates: CHO cells expressing human orexin-1 receptor, FLIPR, 3 nM orexin-A, geometric mean if determined several times.

Where two headings read alike, the source gives them in different places.

orexin-1, sequence (O43613 whole entry): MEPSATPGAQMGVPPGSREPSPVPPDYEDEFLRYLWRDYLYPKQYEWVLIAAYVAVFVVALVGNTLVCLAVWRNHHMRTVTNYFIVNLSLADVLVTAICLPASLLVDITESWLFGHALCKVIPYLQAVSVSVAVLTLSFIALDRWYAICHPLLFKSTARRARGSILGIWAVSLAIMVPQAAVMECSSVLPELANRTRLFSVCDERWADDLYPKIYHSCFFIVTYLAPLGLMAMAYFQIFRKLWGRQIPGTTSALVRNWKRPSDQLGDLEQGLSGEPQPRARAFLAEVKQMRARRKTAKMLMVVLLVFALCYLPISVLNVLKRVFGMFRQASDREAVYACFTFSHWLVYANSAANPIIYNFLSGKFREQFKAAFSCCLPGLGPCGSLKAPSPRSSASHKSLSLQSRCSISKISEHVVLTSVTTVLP

For `Cc1cc(C)c(-n2nccn2)c(C(=O)N2CCC[C@H]2c2nc(-c3ccccc3OC(F)(F)F)no2)c1` [compound 170, (3,5-Dimethyl-2-[1,2,3]triazol-2-yl-phenyl)-{(S)-2-[3-(2-trifluoromethoxy-phenyl)-[1,2,4]oxadiazol-5-yl]-pyrrolidin-1-yl}-methanone], the half-maximal inhibitory concentration (IC50) came to 0.035 µM at human orexin-2 receptor (setting [1]) and 0.055 µM at orexin-1 (setting [2]).
On the same counts, the results for `Cc1cc(C(=O)N2CCC[C@H]2c2nc(-c3ccccc3Cl)no2)c(-n2nccn2)cc1C` [compound 238] are 0.016 µM and 0.104 µM.
On the same counts, the results for `CCOc1ncccc1-c1noc([C@@H]2CCCN2C(=O)c2cc(C#N)ccc2-n2nccn2)n1` [compound 279, 3-{(S)-2-[3-(2-Ethoxy-pyridin-3-yl)-[1,2,4]oxadiazol-5-yl]-pyrrolidine-1-carbonyl}-4-[1,2,3]triazol-2-yl-benzonitrile] are 0.135 µM and 0.296 µM.
For the molecule `COc1c(F)cccc1-c1nc([C@@H]2CCCN2C(=O)c2cc(C)ccc2-n2nccn2)no1` [compound 336, {(S)-2-[5-(3-Fluoro-2-methoxy-phenyl)-[1,2,4]oxadiazol-3-yl]-pyrrolidin-1-yl}-(5-methyl-2-[1,2,3]triazol-2-yl-phenyl)-methanone], the values for the 50% inhibitory concentration (IC50) on human orexin-2 receptor (setting [1]) and on orexin-1 (setting [2]) were 0.003 µM and 0.045 µM, respectively.
As for `CCOc1ncccc1-c1nc([C@@H]2CCCN2C(=O)c2ccc(C)cc2-n2nccn2)no1` [compound 345], the concentration for half-maximal inhibition (IC50) was determined as 0.011 µM on human orexin-2 receptor (setting [1]) and 0.033 µM on orexin-1 (setting [2]).
As for `O=C(c1cc(Cl)ccc1-n1nccn1)N1CCC[C@H]1c1nnc(-c2ccccc2OC(F)(F)F)[nH]1` [compound 504], the IC50 at human orexin-2 receptor was 0.005 µM; at orexin-1 (setting [2]) it was 0.104 µM.
Consider `COc1c(F)cccc1-c1noc([C@@H]2CCCN2C(=O)c2ccc(C)c(C)c2-n2nccn2)n1` [compound 272, (3,4-Dimethyl-2-[1,2,3]triazol-2-yl-phenyl)-{(S)-2-[3-(3-fluoro-2-methoxy-phenyl)-[1,2,4]oxadiazol-5-yl]-pyrrolidin-1-yl}-methanone], for which the IC50 was 0.252 µM on human orexin-2 receptor (setting [1]) and 0.149 µM at orexin-1 (setting [2]).
On to `COc1ccc(-n2nccn2)c(C(=O)N2CCC[C@H]2c2nc(-c3cccc(Cl)c3C)no2)c1F` [compound 265], for which the IC50 on human orexin-2 receptor (setting [1]) is 0.076 µM; at orexin-1 (setting [2]) it was 0.112 µM.
On the same counts, the results for `COc1c(F)cccc1-c1noc([C@@H]2CCCN2C(=O)c2ccc(C(F)(F)F)cc2-n2nccn2)n1` [compound 205, {(S)-2-[3-(3-Fluoro-2-methoxy-phenyl)-[1,2,4]oxadiazol-5-yl]-pyrrolidin-1-yl}-(2-[1,2,3]triazol-2-yl-4-trifluoromethyl-phenyl)-methanone] are 0.043 µM and 0.34 µM.
On the same counts, the results for `COc1ccc(-n2cccn2)c(C(=O)N2CCC[C@H]2c2nc(-c3cccc(Cl)c3C)no2)c1` [compound 106] are 0.028 µM and 0.327 µM.
Consider `Cc1ccc(-n2nccn2)c(C(=O)N2CCC[C@H]2c2cc(-c3cccc(Cl)c3C)no2)c1` [compound 424], for which the IC50 on human orexin-2 receptor (setting [1]) stood at 0.004 µM; at orexin-1 (setting [2]), 0.008 µM.
For `Cc1ccc(C(=O)N2CCC[C@H]2c2nc(-c3cccc(F)c3C)no2)c(-n2nccn2)c1` [compound 246, {(S)-2-[3-(3-Fluoro-2-methyl-phenyl)-[1,2,4]oxadiazol-5-yl]-pyrrolidin-1-yl}-(4-methyl-2-[1,2,3]triazol-2-yl-phenyl)-methanone], in that order: 0.014 µM and 0.135 µM.
For `CCOc1ncccc1-c1nnc([C@@H]2CCCN2C(=O)c2cc(C)c(C)cc2-n2nccn2)[nH]1` [compound 480, (4,5-Dimethyl-2-[1,2,3]triazol-2-yl-phenyl)-{(S)-2-[5-(2-ethoxy-pyridin-3-yl)-4H-[1,2,4]triazol-3-yl]-pyrrolidin-1-yl}-methanone], in that order: 0.009 µM and 0.008 µM.
For `COc1c(F)cccc1-c1noc([C@@H]2CCCN2C(=O)c2ccc(C)cc2-n2nccn2)n1` [compound 195, {(S)-2-[3-(3-Fluoro-2-methoxy-phenyl)-[1,2,4]oxadiazol-5-yl]-pyrrolidin-1-yl}-(4-methyl-2-[1,2,3]triazol-2-yl-phenyl)-methanone], the IC50 at human orexin-2 receptor (setting [1]) was found to be 0.011 µM; at orexin-1 (setting [2]) it was 0.071 µM.
Consider `Cc1ccc(-n2nccn2)c(C(=O)N2CCC[C@H]2c2nc(-c3ccccc3CCO)no2)c1` [Example 87, ((S)-2-{3-[2-(2-Hydroxy-ethyl)-phenyl]-[1,2,4]oxadiazol-5-yl}-pyrrolidin-1-yl)-(5-methyl-2-[1,2,3]triazol-2-yl-phenyl)-methanone], for which the IC50 at human orexin-2 receptor (setting [1]) turned out to be 0.07 µM; at orexin-1 (setting [2]) it was 0.439 µM.
For `CCc1cnc(-c2noc([C@@H]3CCCN3C(=O)c3cc(C)ccc3-n3nccn3)n2)cc1C` [compound 61, {(S)-2-[3-(5-Ethyl-4-methyl-pyridin-2-yl)-[1,2,4]oxadiazol-5-yl]-pyrrolidin-1-yl}-(5-methyl-2-[1,2,3]triazol-2-yl-phenyl)-methanone], in that order: 0.271 µM and 1.48 µM.
For `Cc1cc(-n2nccn2)c(C(=O)N2CCC[C@H]2c2nc(-c3ccccc3OC(F)(F)F)no2)cc1Cl` [compound 299], in that order: 0.019 µM and 0.025 µM.
For the molecule `Cc1cc(C)nc(-c2noc([C@@H]3CCCN3C(=O)c3cc(C)ccc3-n3nccn3)n2)c1` [compound 12, {(S)-2-[3-(4,6-Dimethyl-pyridin-2-yl)-[1,2,4]oxadiazol-5-yl]-pyrrolidin-1-yl}-(5-methyl-2-[1,2,3]triazol-2-yl-phenyl)-methanone], the IC50 on human orexin-2 receptor (setting [1]) amounted to 0.816 µM; at orexin-1 (setting [2]), 0.796 µM.
Consider `Cc1c(F)cccc1-c1nc([C@@H]2CCCN2C(=O)c2cc(Cl)ccc2-n2nccn2)no1` [compound 342], for which the concentration for half-maximal inhibition (IC50) was determined as 0.013 µM on human orexin-2 receptor and 0.152 µM on orexin-1 (setting [2]).
Take `Cc1ccc(-n2nccn2)c(C(=O)N2CCC[C@H]2c2nnc(-c3cccc(Cl)c3C)o2)c1` [compound 440]: the IC50 at human orexin-2 receptor (setting [1]) was determined as 0.021 µM; on orexin-1 (setting [2]), 0.141 µM.
Consider `Cc1ccc(-n2nccn2)c(C(=O)N2CCC[C@H]2c2nc(-c3ccccc3O)no2)c1` [compound 31, {(S)-2-[3-(2-Hydroxy-phenyl)-[1,2,4]oxadiazol-5-yl]-pyrrolidin-1-yl}-(5-methyl-2-[1,2,3]triazol-2-yl-phenyl)-methanone], for which the half-inhibitory concentration (IC50) came out at 0.259 µM on human orexin-2 receptor (setting [1]) and 2.91 µM on orexin-1 (setting [2]).
On the same counts, the results for `N#Cc1ccc(-n2nccn2)c(C(=O)N2CCC[C@H]2c2nc(-c3ccccc3OC(F)(F)F)no2)c1` [compound 275, 4-[1,2,3]Triazol-2-yl-3-{(S)-2-[3-(2-trifluoromethoxy-phenyl)-[1,2,4]oxadiazol-5-yl]-pyrrolidine-1-carbonyl}-benzonitrile] are 0.161 µM and 0.21 µM.
In the case of `COc1cc(C)cc(-c2nc([C@@H]3CCCN3C(=O)c3ccc(Cl)cc3-n3nccn3)no2)c1` [compound 418], the values for the IC50 at human orexin-2 receptor (setting [1]) and at orexin-1 were 0.025 µM and 0.085 µM, respectively.
As to `O=C(c1ncsc1-c1ccccc1)N1CCC[C@H]1c1nnc(-c2ccccc2OC(F)(F)F)[nH]1` [compound 483, (5-Phenyl-thiazol-4-yl)-{(S)-2-[5-(2-trifluoromethoxy-phenyl)-4H-[1,2,4]triazol-3-yl]-pyrrolidin-1-yl}-methanone], the values for the half-inhibitory concentration (IC50) on human orexin-2 receptor (setting [1]) and at orexin-1 (setting [2]) were 1.79 µM and 1.62 µM, respectively.

The term IC50 denotes the point on the concentration scale where inhibition reaches its midpoint.
